Reference: ChEMBL document CHEMBL1156243
The source made the active and inactive calls.

What was measured:
[1] = Binding affinity to amyloid beta (1 to 42) fibrils by change in fluorescence at 100 uM after 10 mins
[2] = Binding affinity to amyloid beta (1 to 42) oligomers by change in fluorescence at 100 uM after 10 mins
[3] = Inhibition of amyloid beta (1 to 42) aggregation […] after 48 hrs by fluorescence imaging

| Structure (SMILES) | Activity [1] | Activity [2] | inhibition [3] |
| --- | --- | --- | --- |
| COc1cc(/C=C/C(=O)c2cccc(N)c2)ccc1O | inactive | inactive | – |
| O=C1C[C@@H](c2ccc(O)cc2)Oc2cc(O)cc(O)c21 | inactive | inactive | – |
| COc1cc(/C=C/C(=O)O)ccc1O | Active | Active | – |
| O=C(/C=C/c1cccc(O)c1)c1ccccc1 | inactive | inactive | – |
| O=c1oc2c(O)c(O)cc3c(=O)oc4c(O)c(O)cc1c4c23 | inactive | inactive | – |
| O=C(O)c1cc(/N=N/c2ccc(-c3ccc(/N=N/c4ccc(O)c(C(=O)O)c4)cc3)cc2)ccc1O | inactive | inactive | – |
| O=C(c1ccccc1)c1ccc(O)c(O)c1O | inactive | inactive | – |
| CC(Cc1ccc(O)c(O)c1)C(C)Cc1ccc(O)c(O)c1 (stereo unspecified) | inactive | inactive | – |
| COc1ccc(/C=C/C(=O)c2cccc(N)c2)cc1OC | inactive | inactive | – |
| O=C(/C=C/c1ccccc1)c1ccccc1 | inactive | inactive | – |
| COc1cc(/C=C/C(=O)NCCCCNC(=O)/C=C/c2ccc(O)c(OC)c2)ccc1O | inactive | inactive | – |
| Cc1ccc2ccc3ccc(C)nc3c2n1 | Active | Active | – |
| O=c1c(-c2ccc(O)cc2)coc2cc(O)cc(O)c12 | inactive | inactive | – |
| COc1ccc(C=O)cc1 | inactive | inactive | – |
| CN(C)[C@@H]1C(O)=C(C(N)=O)C(=O)[C@@]2(O)C(O)=C3C(=O)c4c(O)cccc4[C@@](C)(O)[C@H]3C[C@@H]12 | inactive | inactive | – |
| Cc1ccc2[nH]c(C(=O)O)cc2c1 | Active | Active | inactive |
| O=c1c(O)c(-c2ccc(O)cc2)oc2cc(O)cc(O)c12 | inactive | inactive | – |
| O=C(O)/C=C/c1cccc(O)c1 | inactive | inactive | – |
| O=c1c(O)c(-c2ccc(O)c(O)c2)oc2cc(O)cc(O)c12 | inactive | inactive | – |
| COc1ccc(/C=C/c2cccc(/C=C/c3ccc(OC)c(OC)c3)c2)cc1OC | Active | Active | – |
| N[C@@H](Cc1c[nH]c2ccccc12)C(=O)O | Active | Active | inactive |
| COc1ccc(/C=C/C(=O)c2ccccc2)cc1 | inactive | inactive | – |
| CN(C)[C@@H]1C(O)=C(C(=O)NCN2CCCC2)C(=O)[C@@]2(O)C(O)=C3C(=O)c4c(O)cccc4[C@@](C)(O)[C@H]3C[C@@H]12 | inactive | inactive | – |
| Nc1c(/N=N/c2ccc(-c3ccc(/N=N/c4cc(S(=O)(=O)O)c5ccccc5c4N)cc3)cc2)cc(S(=O)(=O)O)c2ccccc12 | Active | Active | – |
| O=C(O[C@@H]1Cc2c(O)cc(O)cc2O[C@@H]1c1cc(O)c(O)c(O)c1)c1cc(O)c(O)c(O)c1 | inactive | inactive | – |
| Nc1ccc2nc3ccc(N)cc3[s+]c2c1 | inactive | inactive | – |
| COc1cc(/C=C/C(=O)NCCCCCCCCNC(=O)/C=C/c2ccc(O)c(OC)c2)ccc1O | inactive | inactive | – |

| Structure (SMILES) | Activity [1] | Activity [2] | inhibition [3] |
| --- | --- | --- | --- |
| COc1ccc(/C=C/C(=O)c2ccccc2)cc1OC | inactive | inactive | – |
| COc1cc(/C=C/C(=O)CC(=O)/C=C/c2ccc(O)c(OC)c2)ccc1O | inactive | inactive | – |
| O=C(O)C(=O)Cc1c[nH]c2ccccc12 | Active | Active | – |
| COc1cc(/C=C/C(=O)NCc2cccc(CNC(=O)/C=C/c3ccc(O)c(OC)c3)c2)ccc1O | inactive | inactive | – |
| Nc1c2ccccc2nc2ccccc12 | Active | Active | – |
| COc1ccc2[nH]cc(CCNC(C)=O)c2c1 | Active | Active | inactive |
| O=Cc1cccc(O)c1 | inactive | inactive | – |
| O=C1c2c(O)cc(O)cc2O[C@H](c2ccc(O)c(O)c2)[C@H]1O | inactive | inactive | – |
| COc1ccc2c(c1)c(CC(=O)O)c(C)n2C(=O)c1ccc(Cl)cc1 | inactive | inactive | – |
| O=S(=O)(O)c1cc(S(=O)(=O)O)c2c(/N=N/c3ccccc3)c(O)ccc2c1 | inactive | inactive | – |
| Oc1cc(O)c2c(c1)O[C@H](c1ccc(O)c(O)c1)[C@@H](O)C2 | inactive | inactive | – |
| Oc1ccc(Cc2ccc(O)cc2)cc1 | inactive | inactive | – |
| Oc1ccc(/C=C/c2cc(O)cc(O)c2)cc1 | Active | Active | – |
| COc1ccc(/C=C/c2cc(OC)cc(OC)c2)cc1 | inactive | inactive | – |
| O=C1C=Cc2ccccc2C1=O | Active | Active | – |
| COc1cccc(C=O)c1O | inactive | inactive | – |
| O=S1(=O)OC(c2ccc(O)cc2)(c2ccc(O)cc2)c2ccccc21 | inactive | inactive | – |
| COc1ccc(C=O)cc1OC | inactive | inactive | – |
| CNc1ccc2nc3ccc(N)cc3[s+]c2c1 | inactive | inactive | – |
| O=C(c1ccc(O)cc1)c1ccc(O)cc1 | inactive | inactive | – |
| CN(C)c1ccc(N=Nc2ccccc2C(=O)O)cc1 | inactive | inactive | – |
| CN(C)c1ccc2nc3ccc(=[N+](C)C)cc-3sc2c1 | inactive | inactive | – |
| O=C1C=CC(=O)c2c(O)cccc21 | inactive | inactive | – |
| O=C(/C=C/c1ccc(O)c(O)c1)O[C@H](Cc1ccc(O)c(O)c1)C(=O)O | inactive | inactive | – |
| COc1ccc(/C=C/C(=O)CC(=O)/C=C/c2ccc(OC)c(OC)c2)cc1OC | inactive | inactive | – |
| Oc1cc(O)c2c(c1)O[C@H](c1ccc(O)c(O)c1)[C@H](O)C2 | inactive | inactive | – |
| O=Cc1c[nH]c2ccccc12 | inactive | inactive | – |

| Structure (SMILES) | Activity [1] | Activity [2] | inhibition [3] |
| --- | --- | --- | --- |
| CC(=O)c1ccccc1 | inactive | inactive | – |
| CN(C)c1ccc(N=Nc2ccc(S(=O)(=O)O)cc2)cc1 | inactive | inactive | – |
| COc1ccc(C(=O)c2cc(OC)cc(OC)c2)cc1 | inactive | inactive | – |
| O=C1c2ccccc2Cc2ccccc21 | inactive | inactive | – |
| CCN(CC)c1ccc2c(-c3ccccc3C(C)=O)c3ccc(=[N+](CC)CC)cc-3oc2c1 | Active | Active | – |
| O=C1C(Cl)=C(Cl)C(=O)C(Cl)=C1Cl | inactive | inactive | – |
| OCCN1CCN(CCCN2c3ccccc3Sc3ccc(Cl)cc32)CC1 | inactive | inactive | – |
| CC(C)OC(=O)C(C)(C)Oc1ccc(C(=O)c2ccc(Cl)cc2)cc1 | inactive | inactive | – |
| O=C(O)c1ccccc1O | Active | Active | – |
| O=c1c(O)c(-c2cc(O)c(O)c(O)c2)oc2cc(O)cc(O)c12 | inactive | inactive | – |
| CN(C)c1ccc2nc3ccc(N)cc3[s+]c2c1 | inactive | inactive | – |
| O=C(c1ccccc1O)c1ccccc1O | inactive | inactive | – |
| Nc1ccc(/N=N/c2ccc(-c3ccc(/N=N/c4c(S(=O)(=O)O)cc5cc(S(=O)(=O)O)c(/N=N/c6ccccc6)c(O)c5c4N)cc3)cc2)c(N)c1 | inactive | inactive | – |
| O=c1cc(-c2ccc(O)cc2)oc2cc(O)cc(O)c12 | inactive | inactive | – |
| NCCc1c[nH]c2ccccc12 | Active | Active | – |
| CN(C)c1ccc(O)c2c1C[C@H]1C[C@H]3[C@H](N(C)C)C(O)=C(C(N)=O)C(=O)[C@@]3(O)C(O)=C1C2=O | inactive | inactive | – |
| COc1cc(-c2ccc(/N=N/c3ccc4c(S(=O)(=O)O)cc(S(=O)(=O)O)c(N)c4c3O)c(OC)c2)ccc1/N=N/c1ccc2c(S(=O)(=O)O)cc(S(=O)(=O)O)c(N)c2c1O | inactive | inactive | – |
| O=c1cc2oc3cc(O)c(-c4ccc(O)cc4O)cc3nc-2cc1-c1ccc(O)cc1O | inactive | inactive | – |
| COc1cc(/C=C/C(=O)NCCNC(=O)/C=C/c2ccc(O)c(OC)c2)ccc1O | inactive | inactive | – |
| C=C1c2c(Cl)ccc(O)c2C(=O)C2=C(O)[C@]3(O)C(=O)C(C(N)=O)=C(O)[C@@H](N(C)C)[C@@H]3[C@@H](O)[C@H]12.O=C(O)c1cc(S(=O)(=O)O)ccc1O | Active | Active | – |
| O=C(c1ccccc1)c1ccccc1 | inactive | inactive | – |
| CN(C)c1ccc(N=Nc2ccccc2)cc1 | inactive | inactive | – |
| NCCc1ccc(O)c(O)c1 | inactive | inactive | – |
| COc1ccc(/C=C/c2ccc(/C=C/c3ccc(OC)c(OCc4ccccc4)c3)c(Br)c2)cc1OCc1ccccc1 | Active | Active | – |
| COc1cc(/C=C/C(=O)c2ccccc2)ccc1O | inactive | inactive | – |
